In patent US9260429B2, “Pyrido[3,4-B]indoles and methods of use” (Medivation Technologies, Inc., priority 2008, dated 2016) one finds inhibition data, which are given here for 19 compounds.

Read-outs that look alike come from different tables or passages of the source.

The term inhibition denotes how much of the control response was suppressed.

In assay [1] the target is T1, human recombinant histamine H1 receptor (Homo sapiens, UniProt P35367).
T1 construct: expressed in transfected cells; host or cells: CHO cells
As to the kind of experiment: Histamine H1 radioligand binding ([3H]Pyrilamine). Conditions: for inhibition at 3 µM: compound concentration 3 μM; for inhibition at 10 µM: compound concentration 10 μM. In outline:
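Binding to the human recombinant histamine H1 receptor, expressed in CHO cells, was measured in a modified Tris-HCl buffer (50 mM Tris-HCl, pH 7.4, 2 mM MgCl2, 100 mM NaCl, 250 mM Sucrose). Compounds were incubated with 1.2 nM [3H]Pyrilamine for 180 minutes at 25° C, with 1 μM pyrilamine defining non-specific binding. After filtration and washing, filter counts gave percent inhibition of specific binding.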

The target in assay [2] is T2, human recombinant adrenergic α1D receptor (Homo sapiens, UniProt P25100).
T2 construct: expressed in transfected cells; host or cells: HEK-293 cells
T2 sequence (P25100 1-572): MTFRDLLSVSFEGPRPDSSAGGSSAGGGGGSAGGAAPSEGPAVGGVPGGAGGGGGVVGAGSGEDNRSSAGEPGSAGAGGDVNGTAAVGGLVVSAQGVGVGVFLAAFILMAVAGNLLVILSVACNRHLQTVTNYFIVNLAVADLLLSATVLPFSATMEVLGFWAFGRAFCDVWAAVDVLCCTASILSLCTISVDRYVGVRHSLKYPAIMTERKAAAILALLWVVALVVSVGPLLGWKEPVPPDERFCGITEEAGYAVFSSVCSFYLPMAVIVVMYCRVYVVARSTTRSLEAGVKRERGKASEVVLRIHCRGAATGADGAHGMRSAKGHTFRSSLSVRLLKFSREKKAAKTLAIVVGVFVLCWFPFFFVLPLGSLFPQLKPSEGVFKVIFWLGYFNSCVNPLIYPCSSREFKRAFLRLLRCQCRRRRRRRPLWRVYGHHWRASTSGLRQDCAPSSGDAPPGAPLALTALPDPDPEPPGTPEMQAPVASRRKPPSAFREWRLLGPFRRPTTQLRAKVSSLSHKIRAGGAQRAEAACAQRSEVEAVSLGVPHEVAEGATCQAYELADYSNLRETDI
Kind of assay: Adrenergic α1D radioligand binding ([3H]Prozosin). The procedure:
To evaluate in radioligand binding assays the activity of compounds of the invention, human recombinant adrenergic a1D receptor expressed in human embryonic kidney (HEK-293) cells (Kenny, B. A. et al. Br. J. Pharmacol. 115(6):981, 1995) in a 50 mM Tris-HCl buffer, pH 7.4, was used. Compounds of invention were incubated with 0.6 nM [^3H]Prozosin for 60 minutes at 25° C. Non-specific binding was estimated in the presence of 10 μM phentolamine. Receptor proteins were filtered and washed, the filters were then counted to determine [^3H]Prozosin specifically bound. Compounds were screened at 1 μM or lower, using 1% DMSO as vehicle. Biochemical assay results are presented as the percent inhibition of specific binding in Table 4. Adrenergic a2A

Assay [3] has as its target T3, human recombinant adrenergic α2A receptor (Homo sapiens, UniProt P08913).
T3 construct: expressed in transfected cells; host or cells: insect Sf9 cells
T3 sequence (P08913 1-465): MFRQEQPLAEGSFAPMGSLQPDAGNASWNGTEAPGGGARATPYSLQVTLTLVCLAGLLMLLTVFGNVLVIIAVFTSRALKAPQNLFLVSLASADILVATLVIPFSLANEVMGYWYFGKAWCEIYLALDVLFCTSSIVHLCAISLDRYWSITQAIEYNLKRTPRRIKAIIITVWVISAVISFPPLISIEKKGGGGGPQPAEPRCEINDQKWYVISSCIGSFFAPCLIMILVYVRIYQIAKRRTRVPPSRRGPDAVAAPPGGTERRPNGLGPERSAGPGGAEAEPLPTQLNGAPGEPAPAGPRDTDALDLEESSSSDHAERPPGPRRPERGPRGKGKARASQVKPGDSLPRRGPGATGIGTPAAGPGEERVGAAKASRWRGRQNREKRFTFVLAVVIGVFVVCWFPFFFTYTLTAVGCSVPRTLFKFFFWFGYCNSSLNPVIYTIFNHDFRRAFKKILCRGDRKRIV
Kind of assay: Adrenergic α2A radioligand binding ([3H]MK-912). Here is the method: To evaluate in radioligand binding assays the activity of compounds of the invention, human recombinant adrenergic α2A receptor expressed in insect Sf9 cells (Uhlen S et al. J Pharmacol Exp Ther. 271:1558, 1994) in a modified Tris-HCl buffer (50 mM Tris-HCl, pH 7.4, 12.5 mM MgCl2, 2 mM EDTA) was used. Compounds of invention were incubated with 1 nM [^3H]MK-912 for 60 minutes at 25° C. MK912 is (2S-trans)-1,3,4,5′,6,6′,7,12b-octahydro-1′,3′-dimethyl-spiro[2H-benzofuro[2,3-a]quinolizine-2,4′(1′H)-pyrimidin]-2′(3′H)-one hydrochloride Non-specific binding was estimated in the presence of 10 μM WB-4101 (2-(2,6-Dimethoxyphenoxyethyl)aminomethyl-1,4-benzodioxane hydrochloride). Receptor proteins were filtered and washed, the filters were then counted to determine [^3H]MK-912 specifically bound. Compounds were screened at 1 μM or lower, using 1% DMSO as vehicle. Biochemical assay results are presented as the percent inhibition of specific binding in Table 4.

The mark [4] stands for this setting: 1 μM, read-out: Binding data (Percentage Inhibition) Histamine Binding (1 μM) H1.
The mark [5] stands for this setting: 1 h, read-out: Percent Inhibition of ligand binding Adrenergic (1 μM ligand conc.) α1D.
Setting [6] is: 1 h, read-out: Percent Inhibition of ligand binding Adrenergic (1 μM ligand conc.) α2A.
The mark [7] stands for this setting: compound concentration 1 μM, read-out: Percentage inhibition of ligand binding to H1 receptor.
[8] abbreviates: read-out: Percentage inhibition of ligand binding to H1 receptor.
Where [9] appears, read: compound concentration 1 μM, read-out: Percentage inhibition of ligand binding to Adrenergic α1D receptor.
Setting [10] is: compound concentration 1 μM, read-out: Percentage inhibition of ligand binding to Adrenergic α2A receptor.

T1 sequence (P35367 whole entry): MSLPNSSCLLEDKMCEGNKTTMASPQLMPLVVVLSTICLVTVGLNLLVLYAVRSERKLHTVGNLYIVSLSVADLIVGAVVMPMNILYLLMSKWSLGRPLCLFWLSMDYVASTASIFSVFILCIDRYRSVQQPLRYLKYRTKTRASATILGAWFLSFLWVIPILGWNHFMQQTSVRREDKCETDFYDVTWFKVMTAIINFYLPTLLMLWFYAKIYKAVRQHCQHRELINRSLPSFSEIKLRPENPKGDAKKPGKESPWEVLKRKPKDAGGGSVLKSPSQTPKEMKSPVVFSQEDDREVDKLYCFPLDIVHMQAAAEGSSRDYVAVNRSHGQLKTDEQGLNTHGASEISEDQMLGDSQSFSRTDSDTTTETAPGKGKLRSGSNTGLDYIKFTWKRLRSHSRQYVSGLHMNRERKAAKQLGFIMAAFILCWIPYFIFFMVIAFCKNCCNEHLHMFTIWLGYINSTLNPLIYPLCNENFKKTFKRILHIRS

For `CN1CCc2c(n(CCCC(=O)N3CCCCC3)c3ccc(Cl)cc23)C1` [Compound 44, 4-(6-chloro-1,2,3,4-tetrahydro-2-methylpyrido[3,4-b]indol-9-yl)-1-(piperidin-1-yl)butan-1-one], the inhibition at 1 µM was 62% in assay [1] (setting [4]), 61% in assay [2] (setting [5]) and 77% in assay [3] (setting [6]).

Take `C/C(=C\n1c2c(c3cc(C)ccc31)CCN(C)C2)c1ccc(F)cc1` [Compound 91, (E)-9-(2-(4-fluorophenyl)prop-1-enyl)-2,6-dimethyl-2,3,4,9-tetrahydro-1H-pyrido[3,4-b]indole]: the inhibition at 1 µM in assay [1] (setting [4]) turned out to be 28%; in assay [1] (setting [7]), 42%; in assay [2] (setting [5]), 73%; in assay [2] (setting [9]) it was 73%; in assay [3] (setting [6]), 95%; in assay [3] (setting [10]), 95%. Moreover, the inhibition at 3 µM in assay [1] (setting [8]) is 75%. Also, in assay [1] (setting [8]), the inhibition at 10 µM worked out at 95%.

Consider `Cc1ccc2c(c1)c1c(n2CCC2CCCCC2)CN(C)CC1` [Compound 2, 9-(2-cyclohexylethyl)-2,3,4,9-tetrahydro-2,6-dimethyl-1H-pyrido[3,4-b]indole], for which the results for the inhibition at 1 µM in assay [1] (setting [4]), in assay [2] (setting [5]) and in assay [3] (setting [6]) were 95%, 42% and 81%, respectively.

In the case of `Cc1ccc2c(c1)c1c(n2CCc2ccc(C(F)(F)F)nc2)CN(C)CC1` [Compound 5, 9-(2-(6-(trifluoromethyl)pyridin-3-yl)ethyl)-2,3,4,9-tetrahydro-2,6-dimethyl-1H-pyrido[3,4-b]indole], the inhibition at 1 µM in assay [1] (setting [4]) was 35%; in assay [2] (setting [5]) it was 64%; in assay [3] (setting [6]) it was 74%.

Consider `Cc1ccc(C(O)Cn2c3c(c4cc(C)ccc42)CCN(C)C3)cc1` (stereo not shown) [Compound 72], for which the figures for the inhibition at 1 µM in assay [1] (setting [4]), in assay [2] (setting [5]) and in assay [3] (setting [6]) were 55%, 86% and 93%, respectively.

Turning to `CCC1c2c(c3cc(Cl)ccc3n2C#Cc2ccc(F)cc2)CCN1C` (stereo not shown) [Compound 129], the inhibition at 1 µM in assay [1] (setting [4]) stood at 8%; in assay [2] (setting [5]) it was 10%; in assay [3] (setting [6]), 75%.

Turning to `CC1c2c(c3cc(Cl)ccc3n2CCc2ccc(F)cc2)CCN1C` (stereo not shown) [Compound 81], the inhibition at 1 µM in assay [1] (setting [4]) turned out to be 80%; in assay [2] (setting [5]), 64%; in assay [3] (setting [6]), 92%.

With `Cc1ccc2c(c1)c1c(n2CC(=O)O)CN(C)CC1` [Compound 53, 2-(1,2,3,4-tetrahydro-2,6-dimethylpyrido[3,4-b]indol-9-yl)acetic acid], the values for the inhibition at 1 µM in assay [1] (setting [4]), in assay [2] (setting [5]) and in assay [3] (setting [6]) were 5%, 6% and 5%, respectively.

Take `COc1ccc(C(O)Cn2c3c(c4cc(Cl)ccc42)CCN(C)C3)cc1OC` (stereo not shown) [Compound 70]: the inhibition at 1 µM in assay [1] (setting [4]) was determined as 39%; in assay [2] (setting [5]) it was 44%; in assay [3] (setting [6]), 81%.

For the compound `C/C(=C/n1c2c(c3cc(C)ccc31)CCN(C)C2C)c1ccccc1F` (stereo not shown) [Compound 165], the inhibition at 1 µM was determined as 21% in assay [1] (setting [4]), 26% in assay [2] (setting [5]) and 86% in assay [3] (setting [6]).

With `C#CCn1c2c(c3cc(Cl)ccc31)CCN(C)C2` [Compound 125, 6-chloro-2,3,4,9-tetrahydro-2-methyl-9-(prop-2-yn1)-1H-pyrido[3,4-b]indole], the inhibition at 1 µM in assay [1] (setting [4]) worked out at 83%; in assay [2] (setting [5]), 93%; in assay [3] (setting [6]) it was 89%.

For `C/C(=C\n1c2c(c3cc(Cl)ccc31)CCN(C)C2)c1ccc(Cl)cc1` [Compound 98, 6-chloro-9-(2-(4-chlorophenyl)prop-1-enyl)-2-methyl-2,3,4,9-tetrahydro-1H-pyrido[3,4-b]indole], the inhibition at 1 µM in assay [1] (setting [4]) worked out at 40%; in assay [2] (setting [5]) it was 57%; in assay [3] (setting [6]), 74%.

For the compound `C/C(=C\n1c2c(c3cc(C)ccc31)CCN(C)C2)c1ccc(Cl)cc1` [Compound 97, 9-(2-(4-chlorophenyl)prop-1-enyl)-2,6-dimethyl-2,3,4,9-tetrahydro-1H-pyrido[3,4-b]indole], the results for the inhibition at 1 µM in assay [1] (setting [4]), in assay [2] (setting [5]) and in assay [3] (setting [6]) were 20%, 66% and 91%, respectively.

`Cc1ccc2c(c1)c1c(n2CCc2ccc(C)nc2)CN(C)CC1` [Compound 1, 2,3,4,9-tetrahydro-2,6-dimethyl-9-(2-(6-methylpyridin-3-yl)ethyl)-1H-pyrido[3,4-b]indole]: the figures for the inhibition at 1 µM in assay [1] (setting [4]), in assay [2] (setting [5]) and in assay [3] (setting [6]) were 77%, 65% and 74%, respectively.

`CN1CCc2c(n(CCC3CCCC3)c3ccc(Cl)cc23)C1` [Compound 35, 6-chloro-9-(2-cyclopentylethyl)-2,3,4,9-tetrahydro-2-methyl-1H-pyrido[3,4-b]indole]: the inhibition at 1 µM in assay [1] (setting [4]) stood at 98%; in assay [2] (setting [5]) it was 60%; in assay [3] (setting [6]), 88%.

`CN1CCc2c(n(CCN3CCCCC3)c3ccc(Cl)cc23)C1` [Compound 34, 6-chloro-2,3,4,9-tetrahydro-2-methyl-9-(2-(piperidin-1-yl)ethyl)-1H-pyrido[3,4-b]indole]: the results for the inhibition at 1 µM in assay [1] (setting [4]), in assay [2] (setting [5]) and in assay [3] (setting [6]) were 56%, 56% and 66%, respectively.

In the case of `CN1CCc2c(n(CC(O)c3ccccc3F)c3ccc(Cl)cc23)C1` (stereo not shown) [Compound 59, 2-(6-chloro-2-methyl-3,4-dihydro-1H-pyrido[3,4-b]indol-9(2H)-yl)-1-(2-fluorophenyl)ethanol], the inhibition at 1 µM in assay [1] (setting [4]) amounted to 13%; in assay [2] (setting [5]), 30%; in assay [3] (setting [6]), 91%.

On to `Cc1ccc2c(c1)c1c(n2CC(C)(O)c2ccc(F)cc2)CN(C)CC1` (stereo not shown) [Compound 61, 1-(2,6-dimethyl-3,4-dihydro-1H-pyrido[3,4-b]indol-9(2H)-yl)-2-(4-fluorophenyl)propan-2-ol], for which the inhibition at 1 µM was found to be 49% in assay [1] (setting [4]), 49% in assay [2] (setting [5]) and 83% in assay [3] (setting [6]).

Regarding `C/C(=C\n1c2c(c3cc(Cl)ccc31)CCN(C)C2)c1ccc(F)cc1` [Compound 90, (E)-6-chloro-9-(2-(4-fluorophenyl)prop-1-enyl)-2-methyl-2,3,4,9-tetrahydro-1H-pyrido[3,4-b]indole], the inhibition at 1 µM in assay [1] (setting [4]) worked out at 29%; in assay [1] (setting [7]), 48%; in assay [2] (setting [5]), 62%; in assay [2] (setting [9]), 62%; in assay [3] (setting [6]), 88%; in assay [3] (setting [10]), 88%. Further, the inhibition at 3 µM in assay [1] (setting [8]) amounted to 76%. For the same compound, in assay [1] (setting [8]), the inhibition at 10 µM stood at 94%.
